Measurements: article PMC9965125, “New NSAID Conjugates as Potent and Selective COX-2 Inhibitors: Synthesis, Molecular Modeling and Biological Investigation” (Molecules, 2023)
“And” between values parts separate entries of the source, which are not always exact repeats. Equal values may be shown once.

Legend:
[1] = system: IL-6 mRNA; details: 40 μg/mL; in comparison to LPS-stimulated cells only
Method: (§1) For this purpose, the mRNA levels of IL-6, TNF-α, and iNOS were measured using real-time qPCR (RT-qPCR).
(§2) Treatment of LPS-stimulated RAW264.7 macrophages was done with 40 µg/mL of the isolated
(§3) Evaluation of inflammatory mRNA expression levels
(§4) Inflammatory mRNA expression levels were evaluated using RT-qPCR (Applied Biosystems, CA, USA). Total RNA was extracted by lysing RAW264.7 cells using Qiazol Lysis Reagent. The extracted RNA was used to synthesize cDNA using RevertAid First Strand cDNA synthesis kit according to manufacturer’s protocol. The cDNA was then added with forward and reverse
(§5) primers, nuclease free water and maxima SYBR green mix (Thermo Fisher Scientific, MA, USA).
(§6) The inflammation-related genes of mRNA expression levels are as follows: IL-6, TNF-α, and
(§7) iNOS. All expression was normalized to GAPDH (endogenous control) and relative fold mRNA
(§8) expression levels were calculated using the comparative 2 −ΔΔCT method. The PCR reaction consists
(§9) of initiation stage at 95 °C for 10 min, after that 40 PCR cycles of d enaturation stage for 15 s at 95
(§10) °C and annealing and extension for 1 min at 60 °C.

[2] = system: acetic acid-induced abdominal writhing; test: acetic acid-induced abdominal writhing assay (peripheral analgesic); assay type: in vivo, mice; details: for % Inhibition/Protection / Writing Reflex ± SE: 10 mg/kg indomethacin mol equivalent i.p.; for Writing Reflex ± SE: number of writhing counted for 30 min; for Potency: % inhibition/protection compared to indomethacin
Method: Peripheral analgesic testing
Peripheral analgesic activity was measured by the standard acetic acid-induced writhing […]
One hour after intraperitoneally (i,p.) administration of 10 mg kg−1 (mice body weight) […]
distilled/sterile water by the aid of two drops of Tween 80, each mouse was injected with 0.1 ml of 1% acetic acid solution i.p. The control group animals were given sterile/distilled water only with few drops of Tween 80. Starting 5 min after the acetic acid injection, the number of muscular contractions in each mouse was counted for 30 min. A significant reduction in the number of writhing by any test compound as compared to control animals was considered as a positive analgesic response. Percentage protection was calculated according to equ. (3), where n stands for the average number of writhing in the control group and n' is the average number of writhing in the treated group. The % potency was calculated by equ. (4) (Table 2).
% Inhibition/protection = n−n′ x100 … . (3)

[3] = system: gastric mucosa; details: both, albino, mouse, in vivo, 3 days; for % Incidence of Ulcer Divided by 10 / Average Severity of Ulcer / Average of Ulcer Number / Number of Animals with Ulcer: po, 10 mg/kg
Method: The ulcerogenic liability was determined in albino mice obeying the standard method.
Animals of either sex (pregnant females were excluded) weighing 20 –25 g were divided into 8 groups of 6 animals each. The animals fasted 18 h before drug administration.
80 administered orally for three successive days to fasted animals at a dose of 10 mg kg-1 (animal […]
The control group animals were given water only with few drops of Tween 80. The animals were sacrificed by cervical dislocation and the stomach was removed, opened along the greater curvature and rinsed with saline. The gastric mucosa was examined with a magnifying lens (10x) for the presence of lesions and ero sions. The ulcer index was calculated (Table 4) and the degree of ulcerogenic effect was expressed in terms of.
1. The percentage incidence of ulcers divided by 10.
2. Average number of ulcers per stomach.
3. Average severity of ulcers.
The ulcer index is the value that resulted from the sum of the above three values. […]

[4] = system: carrageenan induced paw edema; test: carrageenan-induced rat paw edema; assay type: in vivo; details: for % Inhibition of Edema ± Standard Error / Mean Edema Thickness: 10 mg/kg indomethacin mol equivalent i.p.; for Mean Edema Thickness: ± standard error
Method: Anti-inflammatory activity screening
The anti-inflammatory activity of the tested compounds was determined in-vivo by the acute carrageenan induced paw edema standard method in rats. Adult Wister rats of either sex (pregnant female animals were excluded) weighing 120–150 g were divided into 19 groups of 6 animals each. The tested compounds dissolved in DMSO, at a dose of 10 mg kg-1 (rat body […]
inflammation. The control group was given DMSO only. Paw edema was induced by subcutaneous injection of freshly prepared 1% solution of carrageenan in saline (0.9%, 0.1 ml per rat) into subplantar tissue of the right hind paw of rats. The thickness of the paw was measured (in mm) after successive time intervals (1, 2, 3, 4 and 24 h) and compared with the initial hind paw thickness of each rat for determining the edema thickness. Data were collected, checked, revised and analyzed (SPSS 16). Quantitative variables from normal distribution were expressed as means ± SE “standard error”. The anti-inflammatory activity was expressed as percentage inhibition of edema thickness in treated animals in comparison with the control group according to eqn. (1) […]
% Inhibition of edema= Vc-Vt x 100 … .. (1)
Where, Vc and Vt are the means of edema paw thickness for the control and tested compound treated animal groups, respectively.
The potency of the tested compounds was expressed as % inhibition of edema thickness […]
% Potency = % inhibition of edema for the tested compound treated group x 100 … . (2)

[5] = system: hot plate latency; test: hot plate assay (central analgesic); assay type: in vivo, mice; details: for % Protection / Latency Period ± SE: 10 mg/kg indomethacin mol equivalent i.p.; for Latency Period ± SE: cutoff 15 sec
Method: The % potency was calculated by equ. (4) (Table 2). […]
% Potency = % protection of the tested compound x 100 ……. (4) […]
Central analgesic (hot plate) testing
The standard hot plate technique was undertaken by in vivo standard hot plate test [ 1,2]. […]
by placing them on a hot plate maintained at 55 ± 1 °C, 30 min. […]
suspended in sterile/distilled water by the ai d of two drops of Tween 80, and recording the reaction time in seconds for forepaw licking or jumping. The control group animals were given sterile/distilled water only with few drops of Tween 80. The maximum cutoff time was chosen as 15 sec. to prevent tissue damage. Response latencies were measured 30, 60, 90 and 120 min. after the application. The % protection was calculated by equ. ( 5) where, T1, T0 are the latency time mean of the tested compound and control group, respectively (Table 3).

[6] = system: LPS-stimulated RAW264.7 macrophages; test: NO production of LPS-induced RAW264.7 (Griess method); assay type: cell-based; details: 40 μg/mL; LPS 10 ng/mL; LPS only 22 μM, baseline 12.8 μM
[7] = system: TNF-α mRNA; details: 40 μg/mL; in comparison to LPS-stimulated cells only
Method: as §1, §2, §3, §4, §5, §6, §7, §8, §9, §10

[8] = system: mice; test: toxicological bioassay; assay type: in vivo; details: five times the anti-inflammatory dose (50 mg/kg indomethacin mol equivalent); recorded 24 h post-administration
Method: Five times the anti-inflammatory dose was orally administrated. […]
5a, 5b, 5d, 5e) was determined utilizing the standard method in mice. Albino mice weighing 20–25 g were divided into 6 groups of 6 mice each. Administrations of the tested compounds dissolved in distilled water by the aid of few drops of Tween 80 were given intraperitoneally in 50 […]
inflammatory dosage). The control group was given water only with few drops of Tween 80. The toxic symptoms and mortality rates were recorded 24 h post -administration in each group.

[9] = system: iNOS mRNA; details: 40 μg/mL; in comparison to LPS-stimulated cells only
Method: as §1, §2, §3, §4, §5, §6, §7, §8, §9, §10

Structure (SMILES)	reduction in IL-6 mRNA levels [1] [%]	% Inhibition/Protection [2] [%]	Writing Reflex ± SE [2]	Ulcer Index [3]	% Incidence of Ulcer Divided by 10 [3]	Average Severity of Ulcer [3]	Average of Ulcer Number [3]	Number of Animals with Ulcer [3]	% Inhibition of Edema ± Standard Error ([4]; 1 h) [%]	% Inhibition of Edema ± Standard Error ([4]; 2 h) [%]	% Inhibition of Edema ± Standard Error ([4]; 3 h, 10 mg/kg)	Mean Edema Thickness ([4]; 3 h) [mm]	% Protection ([5]; after 30 min) [%]	Latency Period ± SE ([5]; after 30 min) [s]	% Protection ([5]; after 60 min) [%]	Latency Period ± SE ([5]; after 60 min) [s]	% Protection ([5]; after 90 min) [%]	Latency Period ± SE ([5]; after 90 min) [s]	% Protection ([5]; after 120 min) [%]	Latency Period ± SE ([5]; after 120 min) [s]	also measured
CC(C)Cc1ccc(C(C)C(=O)OCc2cn(-c3ccc(Cl)cc3)nn2)cc1 (stereo not drawn) [Compound 5b, (1-(4-Chlorophenyl)-1H-1,2,3-triazol-4-yl)methyl 2-(4-isobutylphenyl)propanoate]	42	87.5	5.0 ± 0.9	0	0	0	0	0	58.3 ± 0.7	69.6 ± 2.1	94.5% and 94.5 ± 0.4%	0.040 ± 0.01	84.1	12.30 ± 1.6	41.3	10.27 ± 1.9	25.0	11.14 ± 1.5	27.1	11.45 ± 2.0	% Inhibition of Edema ± Standard Error ([4]; 4 h): 66.8 ± 1.6%; % Inhibition of Edema ± Standard Error ([4]; 24 h): 8.4 ± 1.2%; LPS-stimulated NO production (nitrite) [6]: 4.88 ± 1 µM; reduction in TNF-α mRNA levels [7]: 82%; toxic symptoms or mortality [8]: No toxic symptoms or mortality
CC(C)Cc1ccc(C(C)C(=O)OCc2cn(-c3ccccc3Cl)nn2)cc1 (stereo not drawn) [Compound 5a, (1-(2-Chlorophenyl)-1H-1,2,3-triazol-4-yl)methyl 2-(4-isobutylphenyl)propanoate]	61.3	83.3	6.7 ± 0.7	0	0	0	0	0	29.7 ± 1.1	31.3 ± 0.8	95.4% and 95.4 ± 0.7%	0.033 ± 0.01	79.2	11.97 ± 2.5	71.5	12.47 ± 2.0	34.5	11.98 ± 2.6	54.5	13.92 ± 2.3	% Inhibition of Edema ± Standard Error ([4]; 4 h): 45.7 ± 1.4%; % Inhibition of Edema ± Standard Error ([4]; 24 h, 10 mg/kg): 22.5% and 22.5 ± 0.9%; Mean Edema Thickness ([4]; 24 h): 0.713 ± 0.02 mm; LPS-stimulated NO production (nitrite) [6]: 17.7 µM; reduction in TNF-α mRNA levels [7]: 88%; toxic symptoms or mortality [8]: No toxic symptoms or mortality; reduction in iNOS mRNA levels [9]: 34%
COc1ccc2c(c1)c(CC(=O)O)c(C)n2C(=O)c1ccc(Cl)cc1 [Indo, Indomethacin, reference compound]		71.8	11.3 ± 1.6		10	1.67	2	6/6					87.1	12.50 ± 2.0	80.9	13.15 ± 1.6	57.9	14.07 ± 1.2	56.5	14.10 ± 1.9	Potency [2]: 100.0%; Potency ([2]; listed as indomethacin): 100%; % Inhibition of Edema ± Standard Error ([4]; 24 h, 10 mg/kg): 12.0 ± 2.1%; % Inhibition of Edema ± Standard Error ([4]; 24 h, listed as indomethacin, 10 mg/kg): 12.0%; % Potency ([4]; % inhibition of edema thickness relative to indomethacin at 3 h): 100%; Potency ([5]; at 120 min compared to indomethacin): 100
